Data on one substance can be found in patent US8236510B2, “Protein showing enhanced expression in cancer cells” (Agensys, Inc., priority 1999, dated 2012).

The subject of test [1] is ERK phosphorylation in PC3-101P3A11 cells. Description: ERK phosphorylation in PC3-101P3A11 and PC3-neo cells (anti-Phospho-ERK Western blot). Type of test: cell-based, human. To be noted: PC3-101P3A11 cells. On the procedure: Using Western blotting and other techniques, the ability of 101P3A11 to regulate these pathways is confirmed. Cells expressing or lacking 101P3A11 are either left untreated or stimulated with cytokines, androgen and anti-integrin antibodies. Cell lysates were analyzed using anti-phospho-specific antibodies (Cell Signaling, Santa Cruz Biotechnology) in order to detect phosphorylation and regulation of ERK, p38, AKT, PI3K, PLC and other signaling molecules. […] In the experiment, data shown in FIG. 26, control 3T3-neo and 3T3-101P3A11 cells were either treated with 0.5 or 10% FBS and whole cell lysates were analyzed by anti-phosphotyrosine Western blotting.
In this experiment, control PC3-neo cells and PC3-101P3A11 cells were left untreated (0.1% FBS) or were stimulated with 10% FBS, lipophosphatidic acid (LPA), gastrin releasing peptide (GRP), leukotriene (LKB4) or platelet activating factor (PAF). The cells were lysed and analyzed by Western blotting using anti-Phospho-ERK (FIG. 27A) or anti-ERK (FIG. 27B) mAb. […] In order to delineate the signaling pathway by which 101P3A11 mediates ERK phosphorylation in cancer cells, it was confirmed which of the two pathway inhibitors: MEK inhibitor PD98059 or the p38 inhibitor SB203580 regulate 101P3A11 mediated ERK phosphorylation (FIG. 28). […] Cells were lysed and analyzed by Western blotting using anti-Phospho-ERK or anti-ERK mAb. Treatment with 10% FBS or with GRP induced the phosphorylation of ERK in PC3-101P3A11 but not in control PC3-neo cells. 101P3A11-mediated ERK phosphorylation was inhibited by the MEK-1 inhibitor PD98059 but not the p38 inhibitor SB203580 or genistein.
Results in FIGS. 26-28 indicate that 101P3A11 regulates the activity of kinases, including ERK, and phosphatases. In order to confirm the association of 101P3A11 with phosphatase activity, the effect of the protein phosphatase inhibitor sodium orthovanadate on 101P3A11 mediated ERK phosphorylation was determined (FIG. 29). PC3-neo and PC3-101P3A11 cells were grown in media alone or in the presence of sodium orthovanadate (Na3VO4), and were stimulated with 0.1% or 10% FBS. Cells were lysed and analyzed by Western blotting using anti-Phospho-ERK or anti-ERK mAb. […] Results in FIG. 29 confirm the contribution of protein phosphatases to 101P3A11 mediated signaling.
In order to determine whether 101P3A11 signaling results in the activation of EGFR, we compared the effect of the EGFR inhibitor, AG1517, on EGFR- and 101P3A11-mediated ERK phosphorylation (FIG. 30). In FIG. 30, PC3-neo and PC3-101P3A11 cells were grown in media alone (0.1% FBS) or in the presence of AG1517. The cells were stimulated with 0.1% or 10% FBS, GRP or EGF, lysed and analyzed by Western blotting using anti-Phospho-ERK or anti-ERK mAb. Treatment with 10% FBS, GRP and EGF induced ERK phosphorylation in PC3-101P3A11 cells. […] Data in FIG. 30 indicate that some cross talk occurred between 101P3A11 and EGFR signaling pathways.
(§1) Since adenylate cyclase activity modulates intracellular levels of cAMP and induce downstream signaling events such as activation of protein kinase A, calcium and ERK MAPK signaling (Pierce K. L., et al, Oncogene. 2001, 20: 1532), we determined that PTX, an inhibitor of adenylate cyclase signaling, prevents 101P3A11-mediated ERK phosphorylation along with inhibiting cAMP accumulation (FIG. 33 and FIG. 34). PC3-neo and PC3-101P3A11 cells were grown overnight in 0.1% FBS in media alone or in the presence of pertussis toxin (PTX). Cells were stimulated with 0.1% or 10% FBS (FIG. 33) or 10% FBS, EGF or GRP (FIG. 34). Cells were lysed and analyzed by Western blotting using anti-Phospho-ERK mAb. Expression of 101P3A11 mediated ERK phosphorylation by 10% FBS in PC3 cells, which was inhibited by PTX (FIG. 33 and FIG. 34).
GPCR transmit their signal by activating trimeric G proteins. […]
Background: In western blotting, separated proteins are transferred to a membrane and probed.

For the next test, the system named is PC3-101P3A11 cells. Description: Proliferation of PC3-101P3A11 and PC3-neo cells. The class given is cell-based, human. The note with it: PC3-101P3A11 cells, dose dependent. As to the method: as §1
GPCR transmit their signal by activating trimeric G proteins. Once GPCRs are activated, the associated Ga subunit binds GTP, dissociates from the receptor and participates in downstream signaling events (Schild, D., and Restrepo, D. Physiol Rev. 1998, 78:429-66). In order to determine that inhibition of Ga subunits has an effect on 101P3A11 mediated cell growth, the effect of two Ga inhibitors on the proliferation of 3T3-101P3A11 cells was investigated. Control 3T3 and 3T3-101P3A11 cells were grown in the presence or absence of suramin or its derivative NF 449 (Sigma). Cells were analyzed for proliferation 72 hours later (FIG. 35). The experiment was performed in triplicate. […] This response was 101P3A11 specific as suramin and NF449 had no effect on the proliferation of control 3T3 cells. Similarly, inhibition of G protein activation by suramin and NF449 in PC3 cells inhibits the proliferation of PC3-101P3A11 cells grown in 5% FBS (Figure M4). […] This ERK phosohorylation and activation was inhibited by suramin and NF449 in PC3-101P3A11 and 3T3-101P3A11 cells. ERK phosphorylation was inhibited in a dose dependent manner in PC3-101P3A11 cells treated with suramin. […]

In the case of pertussis toxin [PTX], the “inhibition of FBS-mediated ERK phosphorylation” value in test [1] (10% FBS) is “inhibited”. Also, the “effect on GRP and EGF-mediated ERK phosphorylation” value in test [1] (GRP or EGF) was “relatively unaffected”. For the same substance, the inhibition of proliferation result with PC3-101P3A11 cells is recorded as “inhibited”.
